1 substance from patent US20240299469A1, “PRODUCTION OF INDOLE-DERIVED METABOLITES BY SHELF-STABLE COMMUNITIES OF SAFE BACTERIA” (Imvela Corp., priority 2023, published 2024) can be followed below.

The nature of the data set: Storage stability in pet chew matrix. The class given is physicochemical. The conditions noted are these: water activity (aw) 0.4, 4 weeks of storage. Here is the method: Stability of Bacillus Strains 1-3 was measured in a pet chew matrix with water activity (aw) level of 0.4, which is typically growth-prohibitive for other bacteria such as Lactobacillus. While Lactobacillus viability declined over 4 weeks of storage, Bacillus Strains 1-3 remained viable for 4 weeks, with loss of viability being less than <0.5 log 10 (FIGS. 3B and 3D).

Lactobacillus: the viability over storage entry is reported as “declined”.
